Laboratory results published in US6492350B2, “Chitin oligosaccharides and/or chitosan oligosaccharides for preventing or treating common cold or treating pain” (JDC (Hawaii) Inc., priority 2000, dated 2002).

Tests used:
[1] = Clinical study of CCOS analgesia in volunteers with painful conditions (short-form McGill Pain Questionnaire); format: in vivo, human; details: patient
Method: This modification is a hybrid form utilizing both a Visual Analogue Scale rating pain from 0 (no pain) to 5 (excruciating) as well as a pain questionnaire rating the pain from 0 (no pain) to 3 (severe) along with the following descriptions:
To test the effectiveness of chitin chitosan oligosaccharide (CCOS) in providing satisfactory analgesia in both nociceptive and neuropathic pain, a clinical study was conducted with volunteers suffering from a variety of rather common painful conditions (see Table 11). Pain can be an extremely subjective phenomena; there is no laboratory or radiological test to measure its severity or indeed even its presence as described elsewhere p. 8). […] “There is a whole literature of validated, subjective tools that are absolutely reliable” (Melvin C. Gitlin, MD Professor of Anesthesiology, Tulane University School of Medicine and Director of the Pain Management Center at the Tulane University Hospital Clinic) The conditions of all of the volunteers in this study have been documented by physicians, in some cases more than one, and their pain substantiated. […] Our methods, utilizing human subjects is equally valid and acceptable (36). (see Modified McGill Pain form used as the basis to evaluate pain).

[2] = in vivo, po; cited from earlier work

## CC(=O)Nc1ccc(O)cc1 [Tylenol, Acetaminophen]
[1]; low back pain secondary to strain, nociceptive, CCOS 400 mg STAT then 300 mg QID
  Degree of Pain Reduction: little or no effect

## CC(=O)Oc1ccccc1C(=O)O [ASA]
[1]; acute pharangitis, nociceptive (inflammatory), CCOS 150 mg STAT then 100 mg PRN
  Degree of Pain Reduction: no significant improvement

## Chitin
[2]
  absorbed orally: 20-40%
